Assays:
Test in all cases: relative viability (nuclei count vs DMSO), 5 days (fraction); higher = more cells survive
Venetoclax + Dasatinib = compound: CC1(C)CCC(CN2CCN(c3ccc(C(=O)NS(=O)(=O)c4ccc(NCC5CCOCC5)c([N+](=O)[O-])c4)c(Oc4cnc5[nH]ccc5c4)c3)CC2)=C(c2ccc(Cl)cc2)C1 [Venetoclax] + Cc1nc(Nc2ncc(C(=O)Nc3c(C)cccc3Cl)s2)cc(N2CCN(CCO)CC2)n1 [Dasatinib] (partner 0.075 µM)
How it was run: (§1)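 One day after seeding in 1536-well plates, lung cancer cell lines were dosed by pin tool. Dosing was either single-drug or a fixed anchor-drug dose plus five library-drug doses (not always all listed) in √10 steps. After 5 days, nuclei were stained in one fix-and-stain step and counted on 4× images, and relative viability is the nuclei count of treated wells over that of vehicle wells, given as the median of duplicate plates.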

Selumetinib + Foretinib = compound: Cn1cnc2c(F)c(Nc3ccc(Br)cc3Cl)c(C(=O)NOCCO)cc21 [Selumetinib] + COc1cc2c(Oc3ccc(NC(=O)C4(C(=O)Nc5ccc(F)cc5)CC4)cc3F)ccnc2cc1OCCCN1CCOCC1 [Foretinib] (partner 0.25 µM)
How it was run: as §1

Venetoclax + Bortezomib = compound: CC1(C)CCC(CN2CCN(c3ccc(C(=O)NS(=O)(=O)c4ccc(NCC5CCOCC5)c([N+](=O)[O-])c4)c(Oc4cnc5[nH]ccc5c4)c3)CC2)=C(c2ccc(Cl)cc2)C1 [Venetoclax] + CC(C)C[C@H](NC(=O)[C@H](Cc1ccccc1)NC(=O)c1cnccn1)B(O)O [Bortezomib] (partner 0.002 µM)
How it was run: as §1

Selumetinib + Trametinib = compound: Cn1cnc2c(F)c(Nc3ccc(Br)cc3Cl)c(C(=O)NOCCO)cc21 [Selumetinib] + CC(=O)Nc1cccc(-n2c(=O)n(C3CC3)c(=O)c3c(Nc4ccc(I)cc4F)n(C)c(=O)c(C)c32)c1 [Trametinib] (partner 0.02 µM)
How it was run: as §1

Row | Cell Line | relative viability (Venetoclax + Dasatinib; first compound 0.01 µM) | relative viability (Venetoclax + Dasatinib; first compound 0.03162 µM) | relative viability (Venetoclax + Dasatinib; first compound 0.1 µM) | relative viability (Venetoclax + Dasatinib; first compound 0.3162 µM) | relative viability (Venetoclax + Dasatinib; first compound 1 µM) | relative viability (Selumetinib + Foretinib; first compound 0.02 µM) | relative viability (Selumetinib + Foretinib; first compound 0.06325 µM) | relative viability (Selumetinib + Foretinib; first compound 0.2 µM) | relative viability (Selumetinib + Foretinib; first compound 0.6325 µM) | relative viability (Venetoclax + Bortezomib; first compound 0.01 µM) | relative viability (Venetoclax + Bortezomib; first compound 0.03162 µM) | relative viability (Venetoclax + Bortezomib; first compound 0.1 µM) | relative viability (Venetoclax + Bortezomib; first compound 0.3162 µM) | relative viability (Venetoclax + Bortezomib; first compound 1 µM) | relative viability (Selumetinib + Trametinib; first compound 0.02 µM) | relative viability (Selumetinib + Trametinib; first compound 0.06325 µM) | relative viability (Selumetinib + Trametinib; first compound 0.2 µM) | relative viability (Selumetinib + Trametinib; first compound 0.6325 µM)
1 | NCI-H520 | 0.218 | 0.193 | 0.158 | 0.178 | 0.195 | 0.746 | 0.759 | 1.02 | 0.758 | 0.657 | 0.708 | 0.431 | 0.628 | 0.494 | 0.826 | 0.677 | 0.749 | 0.776
2 | H3255 | 0.367 | 0.399 | 0.373 | 0.446 | 0.404 | 0.867 | 0.921 | 0.457 | 0.739 | 0.784 | 0.855 | 0.626 | 0.825 | 0.644 | 0.586 | 0.583 | 0.601 | 0.54
